In the assay the target is Glutamate receptor 2 (Homo sapiens, UniProt P42262). Description: Positive allosteric modulation of GluA2Q flop isoform (unknown origin) expressed in HEK293 cells assessed as increase in L-glutamate induced calcium flux after 1 hr by fluo-4AM dye-based fluorescence assay. Type of assay: cell-based. (Calcium flux is commonly read through the fluorescence of an indicator in the cells.)
Glutamate receptor 2, sequence (P42262 whole entry, canonical isoform): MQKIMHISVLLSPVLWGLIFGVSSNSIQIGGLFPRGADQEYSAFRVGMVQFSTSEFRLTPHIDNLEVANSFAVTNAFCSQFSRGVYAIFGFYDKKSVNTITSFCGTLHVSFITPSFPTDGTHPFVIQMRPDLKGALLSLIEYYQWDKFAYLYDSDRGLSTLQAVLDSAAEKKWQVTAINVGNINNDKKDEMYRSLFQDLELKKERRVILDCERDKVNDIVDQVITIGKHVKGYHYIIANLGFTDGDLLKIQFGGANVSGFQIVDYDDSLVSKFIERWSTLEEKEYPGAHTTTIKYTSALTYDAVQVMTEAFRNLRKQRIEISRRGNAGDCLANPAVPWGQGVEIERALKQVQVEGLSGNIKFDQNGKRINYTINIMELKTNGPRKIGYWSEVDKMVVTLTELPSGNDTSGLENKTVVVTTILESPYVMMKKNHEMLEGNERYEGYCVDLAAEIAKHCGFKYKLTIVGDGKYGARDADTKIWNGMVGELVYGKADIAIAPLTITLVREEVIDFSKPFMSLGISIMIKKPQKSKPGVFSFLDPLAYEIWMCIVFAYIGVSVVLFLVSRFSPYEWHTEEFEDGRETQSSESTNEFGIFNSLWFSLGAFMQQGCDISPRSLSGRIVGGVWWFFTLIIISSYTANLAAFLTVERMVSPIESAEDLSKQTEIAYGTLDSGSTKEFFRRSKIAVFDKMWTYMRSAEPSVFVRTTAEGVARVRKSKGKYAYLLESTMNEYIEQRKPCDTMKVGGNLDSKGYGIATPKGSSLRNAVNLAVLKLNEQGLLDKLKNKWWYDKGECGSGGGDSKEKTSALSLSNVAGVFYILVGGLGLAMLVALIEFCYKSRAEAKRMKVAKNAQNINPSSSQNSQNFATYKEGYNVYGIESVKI

For the compound `CN1CNS(=O)(=O)c2ccccc21`, for the setting “read-out: EC50”, the EC50 was determined as 176 µM.

For `O=S1(=O)NCN(C2CC2)c2ccccc21`, where the note is “read-out: EC50”, the EC50 stood at 9.06 µM.

Turning to `CN1CNS(=O)(=O)c2ccc(CCc3ccc4c(c3)N(C)CNS4(=O)=O)cc21`, the EC50 (read-out: EC50) amounted to 0.0134 µM and the EC50 (read-out: pEC50 (converted)) was 0.0145 µM.

For the compound `Cc1ccc2c(c1)N(C1CC1)CNS2(=O)=O`, the EC50 by setting is: (read-out: EC50) 48.2 µM; (read-out: pEC50 (converted)) 49 µM.

Regarding `Cc1ccc2c(c1)N(C)CNS2(=O)=O`, for the setting “read-out: EC50”, the EC50 was 403 µM.

Take `O=S1(=O)NCN(C2CC2)c2cc(CCc3ccc4c(c3)N(C3CC3)CNS4(=O)=O)ccc21`: the EC50 (read-out: EC50) amounted to 0.0014 µM.
